According to ChEMBL document CHEMBL4251579, “Design, synthesis, and biological evaluation of a series of resorcinol-based N-benzyl benzamide derivatives as potent Hsp90 inhibitors” (Eur J Med Chem, 2018):
Active and inactive are the calls of the source. No cut-off for these calls is given here.

What was measured:
NCI-H1975 [1] = assay: Antiproliferative activity against human NCI-H1975 cells after 72 hrs by Cell Titer 96 Aqueous One Solution cell proliferation assay; type: functional; conditions: NCI-H1975, 72 h
SK-BR-3 = assay: Antiproliferative activity against human SKBR3 cells after 72 hrs by Cell Titer 96 Aqueous One Solution cell proliferation assay; type: functional
[2] = target: T1, Heat shock protein HSP90 (Homo sapiens) (UniProt P07900+P08238); assay: Inhibition of HSP90 in human NCI-H1975 cells assessed as induction of HSP90 expression at 0.05 to 1 uM after 24 hrs by Western blot analysis; type: cell-based
Mus musculus [3] = assay: In vivo inhibition of HSP90 in NOD-scid IL2Rgamma null mouse tumor xenografted with human NCI-H1975 cells assessed as decrease in EGFR protein expression at 25 to 50 mg/kg, ip dosed daily for 5 days per week followed by 2 days rest for 3 weeks and measured after 21 days post dose by immunoblot analysis; type: functional, organism-based
[4] = target: T1, Heat shock protein HSP90 (Homo sapiens); assay: Inhibition of HSP90 in human NCI-H1975 cells assessed as decrease in Met protein expression at 0.05 to 1 uM after 24 hrs by Western blot analysis; type: cell-based
NCI-H1975 [5] = assay: Induction of apoptosis in human NCI-H1975 cells assessed as increase in Bax expression levels at 0.05 to 1 uM after 24 by Western blot analysis; type: functional, cell-based
Cytochrome P450 2C9 = Cytochrome P450 2C9 (Homo sapiens, UniProt P11712); assay: Inhibition of CYP2C9 in human pooled human liver microsomes using tolbutamide as substrate assessed as tolbutamide 4-methylhydroxylation preincubated for 5 mins followed by NADPH addition measured after 15 mins by LC-MS/MS analysis; type: ADME
Sequence of Cytochrome P450 2C9 (P11712 whole entry): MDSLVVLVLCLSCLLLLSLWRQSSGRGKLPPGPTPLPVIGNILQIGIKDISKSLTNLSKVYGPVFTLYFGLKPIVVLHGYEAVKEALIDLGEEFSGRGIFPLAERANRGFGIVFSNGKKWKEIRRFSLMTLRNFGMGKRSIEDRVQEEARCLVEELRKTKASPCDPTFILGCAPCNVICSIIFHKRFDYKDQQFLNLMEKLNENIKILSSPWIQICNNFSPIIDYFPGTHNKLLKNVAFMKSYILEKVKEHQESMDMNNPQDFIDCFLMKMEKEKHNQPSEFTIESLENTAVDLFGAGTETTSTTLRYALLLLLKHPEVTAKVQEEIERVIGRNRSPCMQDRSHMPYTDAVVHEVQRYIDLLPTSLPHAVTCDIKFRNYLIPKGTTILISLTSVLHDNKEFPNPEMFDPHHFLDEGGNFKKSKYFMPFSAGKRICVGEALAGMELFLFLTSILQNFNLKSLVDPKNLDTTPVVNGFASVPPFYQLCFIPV

[6] = target: T1, Heat shock protein HSP90 (Homo sapiens); assay: Inhibition of HSP90 in human NCI-H1975 cells assessed as decrease in Her2 protein expression at 0.05 to 1 uM after 24 hrs by Western blot analysis; type: cell-based
Mus musculus [7] = assay: In vivo inhibition of HSP90 in NOD-scid IL2Rgamma null mouse tumor xenografted with human NCI-H1975 cells assessed as decrease in Akt protein expression at 25 to 50 mg/kg, ip dosed daily for 5 days per week followed by 2 days rest for 3 weeks and measured after 21 days post dose by haematoxylin and eosin staining-based immunohistochemical analysis; type: functional, organism-based
Mus musculus [8] = assay: In vivo inhibition of HSP90 in NOD-scid IL2Rgamma null mouse tumor xenografted with human NCI-H1975 cells assessed as decrease in EGFR protein expression at 25 to 50 mg/kg, ip dosed daily for 5 days per week followed by 2 days rest for 3 weeks and measured after 21 days post dose by haematoxylin and eosin staining-based immunohistochemical analysis; type: functional, organism-based
NCI-H1975 [9] = assay: Antitumor activity against human NCI-H1975 cells xenografted in NOD-scid IL2Rgamma null mouse assessed as delay in tumor growth at 25 to 50 mg/kg, ip dosed daily for 5 days per week followed by 2 days rest for 3 weeks and measured up to 21 days post dose; type: functional, organism-based
[10] = target: T2, Heat shock protein HSP 90-alpha (Homo sapiens, UniProt P07900); assay: Binding affinity to N-terminal domain of recombinant full-length HSP90alpha (unknown origin) by surface plasmon resonance assay
CYP3A = CYP3A (Homo sapiens, UniProt P08684+P20815+P24462+Q9HB55); assay: Inhibition of CYP3A in human pooled human liver microsomes using midazolam as substrate assessed as midazolam 1'-hydroxylation preincubated for 5 mins followed by NADPH addition measured after 15 mins by LC-MS/MS analysis; type: ADME; conditions: probe midazolam
[11] = target: T2, Heat shock protein HSP 90-alpha; assay: Inhibition of FITC-geldanamycin binding to N-terminal domain of recombinant full-length HSP90alpha (unknown origin) after 16 hrs by fluorescence polarization assay
NCI-H1975 [12] = assay: Effect on beta-actin protein levels in human NCI-H1975 cells at 0.05 to 1 uM after 24 hrs by Western blot analysis; type: ADME, cell-based; conditions: nci-h1975, 24 h
[13] = target: T1, Heat shock protein HSP90 (Homo sapiens); assay: Inhibition of HSP90 in human NCI-H1975 cells assessed as decrease in EGFR protein expression at 0.05 to 1 uM after 24 hrs by Western blot analysis; type: cell-based
Mus musculus [14] = assay: In vivo inhibition of HSP90 in NOD-scid IL2Rgamma null mouse tumor xenografted with human NCI-H1975 cells assessed as decrease in Met protein expression at 25 to 50 mg/kg, ip dosed daily for 5 days per week followed by 2 days rest for 3 weeks and measured after 21 days post dose by haematoxylin and eosin staining-based immunohistochemical analysis; type: functional, organism-based
Cytochrome P450 2C19 = Cytochrome P450 2C19 (Homo sapiens, UniProt P33261); assay: Inhibition of CYP2C19 in human pooled human liver microsomes using omeprazole as substrate assessed as omepraozle hydroxylation preincubated for 5 mins followed by NADPH addition measured after 15 mins by LC-MS/MS analysis; type: ADME
Sequence of Cytochrome P450 2C19 (P33261 whole entry): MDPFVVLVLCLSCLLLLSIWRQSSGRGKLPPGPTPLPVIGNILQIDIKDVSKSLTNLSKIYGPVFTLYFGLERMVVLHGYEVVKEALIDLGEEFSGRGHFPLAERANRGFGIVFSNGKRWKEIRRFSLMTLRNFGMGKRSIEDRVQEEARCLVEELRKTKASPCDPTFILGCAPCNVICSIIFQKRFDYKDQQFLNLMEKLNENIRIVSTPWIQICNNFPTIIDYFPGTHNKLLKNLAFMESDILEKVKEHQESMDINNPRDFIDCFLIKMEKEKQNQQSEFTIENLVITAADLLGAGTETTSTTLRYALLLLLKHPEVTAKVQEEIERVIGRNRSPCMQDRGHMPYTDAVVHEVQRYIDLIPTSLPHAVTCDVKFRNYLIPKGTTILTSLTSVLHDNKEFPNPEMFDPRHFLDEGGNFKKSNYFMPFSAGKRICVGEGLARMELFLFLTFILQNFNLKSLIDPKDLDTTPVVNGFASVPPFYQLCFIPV

Mus musculus [15] = assay: In vivo inhibition of HSP90 in NOD-scid IL2Rgamma null mouse tumor xenografted with human NCI-H1975 cells assessed as decrease in Met protein expression at 25 to 50 mg/kg, ip dosed daily for 5 days per week followed by 2 days rest for 3 weeks and measured after 21 days post dose by immunoblot analysis; type: functional, organism-based
NCI-H1975 [16] = assay: Induction of apoptosis in human NCI-H1975 cells assessed as increase in cleaved caspase-3 expression at 0.05 to 1 uM after 24 hrs by Western blot analysis; type: functional, cell-based
Mus musculus [17] = assay: In vivo inhibition of HSP90 in NOD-scid IL2Rgamma null mouse tumor xenografted with human NCI-H1975 cells assessed as decrease in Akt protein expression at 25 to 50 mg/kg, ip dosed daily for 5 days per week followed by 2 days rest for 3 weeks and measured after 21 days post dose by immunoblot analysis; type: functional, organism-based
[18] = target: T1, Heat shock protein HSP90 (Homo sapiens); assay: Inhibition of HSP90 in human NCI-H1975 cells assessed as decrease in Akt protein expression at 0.05 to 1 uM after 24 hrs by Western blot analysis; type: cell-based
NCI-H1975 [19] = assay: Induction of apoptosis in human NCI-H1975 cells assessed as increase in cleaved caspase-8 expression at 0.05 to 1 uM after 24 hrs by Western blot analysis; type: functional, cell-based
[20] = target: T1, Heat shock protein HSP90 (Homo sapiens); assay: Inhibition of HSP90 in human NCI-H1975 cells assessed as induction of HSP70 expression at 0.05 to 1 uM after 24 hrs by Western blot analysis; type: cell-based
NCI-H1975 [21] = assay: Induction of apoptosis in human NCI-H1975 cells assessed as increase in cleaved PARP expression at 0.05 to 1 uM after 24 hrs by Western blot analysis; type: functional, cell-based
[22] = target: T1, Heat shock protein HSP90 (Homo sapiens); assay: Inhibition of HSP90 in human NCI-H1975 cells assessed as decrease in c-Raf protein expression at 0.05 to 1 uM after 24 hrs by Western blot analysis; type: cell-based
Mus musculus [23] = assay: Toxicity in NOD-scid IL2Rgamma null mouse xenografted with human NCI-H1975 cells assessed as change in body weight at 25 to 50 mg/kg, ip dosed daily for 5 days per week followed by 2 days rest for 3 weeks and measured after 21 days post dose; type: organism-based; conditions: in vivo, 504 h
Cytochrome P450 1A2 = target: T3, Cytochrome P450 1A2 (Homo sapiens, UniProt P05177); assay: Inhibition of CYP1A2 in human pooled human liver microsomes using phenacetin as substrate assessed as […] preincubated for 5 mins followed by NADPH addition measured after 15 mins by LC-MS/MS analysis; type: ADME
T3 sequence (P05177 whole entry): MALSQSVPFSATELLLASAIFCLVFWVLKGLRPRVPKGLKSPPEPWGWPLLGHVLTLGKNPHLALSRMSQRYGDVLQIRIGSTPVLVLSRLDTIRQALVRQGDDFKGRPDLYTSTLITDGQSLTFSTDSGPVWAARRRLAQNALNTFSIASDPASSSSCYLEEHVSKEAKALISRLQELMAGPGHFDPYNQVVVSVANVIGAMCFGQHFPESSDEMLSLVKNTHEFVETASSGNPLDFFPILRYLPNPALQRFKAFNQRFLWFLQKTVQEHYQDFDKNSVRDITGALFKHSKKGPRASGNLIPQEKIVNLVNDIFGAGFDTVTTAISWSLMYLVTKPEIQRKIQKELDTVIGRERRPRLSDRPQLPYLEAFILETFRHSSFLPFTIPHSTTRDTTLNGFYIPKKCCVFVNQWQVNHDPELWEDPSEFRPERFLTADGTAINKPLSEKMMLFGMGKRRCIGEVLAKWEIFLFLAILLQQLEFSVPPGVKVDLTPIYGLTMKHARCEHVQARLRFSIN

NCI-H1975 [24] = assay: Induction of apoptosis in human NCI-H1975 cells assessed as increase in Bcl2 expression levels at 0.05 to 1 uM after 24 by Western blot analysis; type: functional, cell-based
Mus musculus [25] = assay: Toxicity in NOD-scid IL2Rgamma null mouse xenografted with human NCI-H1975 cells assessed as induction of abnormal behaviours at 25 to 50 mg/kg, ip measured after 21 days; type: organism-based; conditions: in vivo, 504 h
Cytochrome P450 2D6 = Cytochrome P450 2D6 (Homo sapiens, UniProt P10635); assay: Inhibition of CYP2D6 in human pooled human liver microsomes using dextromethorphan as substrate assessed as dextromethorphan O-demethylation preincubated for 5 mins followed by NADPH addition measured after 15 mins by LC-MS/MS analysis; type: ADME
Sequence of Cytochrome P450 2D6 (P10635 whole entry): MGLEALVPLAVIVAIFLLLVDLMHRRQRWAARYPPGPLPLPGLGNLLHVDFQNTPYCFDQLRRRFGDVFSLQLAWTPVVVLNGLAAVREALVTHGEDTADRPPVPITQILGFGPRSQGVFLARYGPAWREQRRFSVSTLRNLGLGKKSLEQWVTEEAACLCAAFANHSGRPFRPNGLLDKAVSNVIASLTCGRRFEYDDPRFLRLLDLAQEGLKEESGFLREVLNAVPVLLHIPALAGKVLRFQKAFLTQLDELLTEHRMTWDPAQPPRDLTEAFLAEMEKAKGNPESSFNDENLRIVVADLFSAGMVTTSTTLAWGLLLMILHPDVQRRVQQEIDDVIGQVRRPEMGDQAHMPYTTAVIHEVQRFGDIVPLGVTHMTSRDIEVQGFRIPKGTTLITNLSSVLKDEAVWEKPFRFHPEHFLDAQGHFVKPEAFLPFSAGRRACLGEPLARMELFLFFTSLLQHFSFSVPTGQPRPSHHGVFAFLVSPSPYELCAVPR

## Cc1cccc(CN(C)C(=O)c2cc(Cl)c(O)cc2O)c1
NCI-H1975 [1]
  GI50: 49.3 µM
SK-BR-3; SK-BR-3, 72 h
  GI50: 11.3 µM

## COc1ccc(CN(C)C(=O)c2cc(Cl)c(O)cc2O)cc1OC
NCI-H1975 [1]
  GI50: 33.4 µM
SK-BR-3; SK-BR-3, 72 h
  GI50: 7.7 µM

## Cc1ccccc1CN(C)C(=O)c1cc(Cl)c(O)cc1O
NCI-H1975 [1]
  GI50: 47.5 µM
SK-BR-3; SK-BR-3, 72 h
  GI50: 4.2 µM

## COc1cc(CN(C)C(=O)c2cc(Cl)c(O)cc2O)c(Br)c(OC)c1OC
NCI-H1975 [1]
  GI50: 34.3 µM
SK-BR-3; SK-BR-3, 72 h
  GI50: 7.7 µM

## COc1ccc(CN(C)C(=O)c2cc(Cl)c(O)cc2O)cc1
NCI-H1975 [1]
  GI50: 16.7 µM
SK-BR-3; SK-BR-3, 72 h
  GI50: 7.2 µM

## Cc1ccc(CN(C)C(=O)c2cc(Cl)c(O)cc2O)cc1
NCI-H1975 [1]
  GI50: 34.3 µM
SK-BR-3; SK-BR-3, 72 h
  GI50: 7.2 µM

## CCCNC(=O)c1ccc(CN(C)C(=O)c2cc(C(C)C)c(O)cc2O)cc1
[2]
  inhibition: Active
Mus musculus [3]
  inhibition: Active
[4]
  inhibition: Active
NCI-H1975 [5]
  Activity: inactive
Cytochrome P450 2C9
  IC50: 5.3 µM
[6]
  inhibition: Active
Mus musculus [7]
  inhibition: Active
Mus musculus [8]
  inhibition: Active
NCI-H1975 [9]
  Activity: Active
NCI-H1975 [1]
  GI50: 0.42 µM
[10]
  Kd: 3.08 nM
CYP3A
  IC50 at 15 min: 25.9 µM
[11]
  IC50: 5.3 nM
NCI-H1975 [12]
  Activity: Non-Toxic
[13]
  inhibition: Active
Mus musculus [14]
  inhibition: Active
Cytochrome P450 2C19
  IC50: 14.6 µM
Mus musculus [15]
  inhibition: Active
NCI-H1975 [16]
  Activity: Active
Mus musculus [17]
  inhibition: Active
[18]
  inhibition: Active
NCI-H1975 [19]
  Activity: Active
[20]
  inhibition: Active
NCI-H1975 [21]
  Activity: Active
[22]
  inhibition: Active
Mus musculus [23]
  Activity: Non-Toxic
Cytochrome P450 1A2
  IC50: 34.1 µM
NCI-H1975 [24]
  Activity: inactive
Mus musculus [25]
  Activity: Non-Toxic
Cytochrome P450 2D6
  IC50: 23 µM

## CNC(=O)c1ccc(CN(C)C(=O)c2cc(Cl)c(O)cc2O)cc1
NCI-H1975 [1]
  GI50: 34.8 µM
[11]
  IC50: 496 nM

## CN(Cc1ccccc1)C(=O)c1cc(Cl)c(O)cc1O
NCI-H1975 [1]
  GI50: 35.5 µM
SK-BR-3; SK-BR-3, 72 h
  GI50: 18.3 µM

## O=C(NCc1ccccc1)c1cc(Cl)c(O)cc1O
NCI-H1975 [1]
  GI50: 86.2 µM
SK-BR-3
  GI50: inactive

## CN(Cc1ccc2c(c1)OCO2)C(=O)c1cc(Cl)c(O)cc1O
NCI-H1975 [1]
  GI50: 103 µM
SK-BR-3; SK-BR-3, 72 h
  GI50: 41.8 µM

## COC1=C2C[C@@H](C)C[C@H](OC)[C@H](O)[C@@H](C)/C=C(\C)[C@H](OC(N)=O)[C@@H](OC)/C=C\C=C(/C)C(=O)NC(=CC1=O)C2=O [GELDANAMYCIN]
NCI-H1975 [1]
  GI50: 0.56 µM
SK-BR-3
  GI50: inactive

## CNC(=O)c1ccc(CN(C)C(=O)c2cc(C(C)C)c(O)cc2O)cc1
NCI-H1975 [1]
  GI50: 0.86 µM
[11]
  IC50: 11.4 nM

## CCNC(=O)c1ccc(CN(C)C(=O)c2cc(C(C)C)c(O)cc2O)cc1
NCI-H1975 [1]
  GI50: 0.46 µM

## CCCNC(=O)c1ccc(CN(C)C(=O)c2cc(Cl)c(O)cc2O)cc1
NCI-H1975 [1]
  GI50: 20.8 µM

## CCNC(=O)c1ccc(CN(C)C(=O)c2cc(Cl)c(O)cc2O)cc1
NCI-H1975 [1]
  GI50: 21.7 µM

## COc1cc(CN(C)C(=O)c2cc(Cl)c(O)cc2O)cc(OC)c1OC
NCI-H1975 [1]
  GI50: 73.1 µM
[11]
  IC50: > 1000 nM
SK-BR-3; SK-BR-3, 72 h
  GI50: 30.1 µM

## COc1cc(CN(C)C(=O)c2cc(Cl)c(O)cc2O)c(Cl)c(OC)c1OC
NCI-H1975 [1]
  GI50: 33.8 µM
SK-BR-3; SK-BR-3, 72 h
  GI50: 2.4 µM
